In patent US20080280920A1, “Plasminogen Activator Inhibitor-1 Inhibitors” (priority 2005, published 2008):

Columns and labels:
SW-620 = assay: NCI anticancer screen, SW-620; type: cell-based, human; conditions: SW-620, Colon, 48 h
LOX IMVI = assay: NCI anticancer screen, LOX IMVI; type: cell-based, human; conditions: Melanoma, 48 h
NCI/ADR-RES = assay: NCI anticancer screen, NCI/ADR-RES; type: cell-based, human; conditions: Breast, 48 h
RXF 393 = assay: NCI anticancer screen, RXF 393; type: cell-based, human; conditions: RXF 393, Renal, 48 h
T-47D = assay: NCI anticancer screen, T-47D; type: cell-based, human; conditions: Breast, 48 h
CAKI-1 = assay: NCI anticancer screen, CAKI-1; type: cell-based, human; conditions: CAKI-1, Renal, 48 h
M14 = assay: NCI anticancer screen, M14; type: cell-based, human; conditions: M14, Melanoma, 48 h
OVCAR-3 = assay: NCI anticancer screen, OVCAR-3; type: cell-based, human; conditions: OVCAR-3, Ovarian, 48 h
BT-549 = assay: NCI anticancer screen, BT-549; type: cell-based, human; conditions: BT-549, Breast, 48 h
HOP-92 = assay: NCI anticancer screen, HOP-92; type: cell-based, human; conditions: HOP-92, Non-Small Cell Lung, 48 h
MDA-MB-231/ATCC = assay: NCI anticancer screen, MDA-MB-231/ATCC; type: cell-based, human; conditions: Breast, 48 h
HCT-116 = assay: NCI anticancer screen, HCT-116; type: cell-based, human; conditions: HCT-116, Colon, 48 h
MALME-3M = assay: NCI anticancer screen, MALME-3M; type: cell-based, human; conditions: Melanoma, 48 h
NCI-H522 = assay: NCI anticancer screen, NCI-H522; type: cell-based, human; conditions: NCI-H522, Non-Small Cell Lung, 48 h
SNB-75 = assay: NCI anticancer screen, SNB-75; type: cell-based, human; conditions: SNB-75, CNS, 48 h
U251 = assay: NCI anticancer screen, U251; type: cell-based, human; conditions: U251, CNS, 48 h
DU-145 = assay: NCI anticancer screen, DU-145; type: cell-based, human; conditions: DU-145, Prostate, 48 h
ACHN = assay: NCI anticancer screen, ACHN; type: cell-based, human; conditions: Renal, 48 h
OVCAR-4 = assay: NCI anticancer screen, OVCAR-4; type: cell-based, human; conditions: OVCAR-4, Ovarian, 48 h
wildtype human PAI-1 = molecular target: T1, wildtype human PAI-1 (Homo sapiens, UniProt P05121); assay: PAI-1/uPA assay (residual uPA activity, fluorescent substrate SpectroFluor); type: biochemical; conditions: for Conc. of compound required for PAI-1 inhibition (result in words): within the concentration range tested
T1 construct: purchased Molecular Innovations Lot# HWT-804
T1 sequence (P05121 24-402): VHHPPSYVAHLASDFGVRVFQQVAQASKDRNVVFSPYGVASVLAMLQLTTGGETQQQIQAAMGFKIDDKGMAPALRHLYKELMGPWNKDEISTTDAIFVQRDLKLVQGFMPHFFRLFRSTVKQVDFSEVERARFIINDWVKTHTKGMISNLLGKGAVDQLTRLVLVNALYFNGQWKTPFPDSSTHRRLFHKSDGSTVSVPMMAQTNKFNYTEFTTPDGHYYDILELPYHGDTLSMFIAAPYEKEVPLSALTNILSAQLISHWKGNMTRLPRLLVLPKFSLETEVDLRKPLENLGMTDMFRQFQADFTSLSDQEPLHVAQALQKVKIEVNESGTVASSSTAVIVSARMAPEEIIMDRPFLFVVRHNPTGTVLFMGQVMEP
In short: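 Wildtype human PAI-1 (6 nM) preincubated 15-20 min at RT with compound (10 nM to 100 μM final) in HEPES buffer pH 6.6, then with uPA (8 nM, HMW) 5 min. SpectroFluor (0.1 mM) cleavage followed 30 min at 37 °C (ex 360/em 440 nm); PAI-1 activity expressed as % of untreated PAI-1.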

K-562 = assay: NCI anticancer screen, K-562; type: cell-based, human; conditions: K-562, Leukemia, 48 h
HS 578T = assay: NCI anticancer screen, HS 578T; type: cell-based, human; conditions: Breast, 48 h
NCI-H23 = assay: NCI anticancer screen, NCI-H23; type: cell-based, human; conditions: NCI-H23, Non-Small Cell Lung, 48 h
KM12 = assay: NCI anticancer screen, KM12; type: cell-based, human; conditions: KM12, Colon, 48 h
[1] = Homo sapiens, read-out: LC50 (the source's name)

`CCOC(=O)c1ccc(CNCc2cc(CN3CCN(c4ccccn4)CC3)c(O)c(OC)c2)cc1` [Compound Q012135T] gave a GI50 (SW-620; Homo sapiens) of 18.5 µM, a CC50 (SW-620; [1]) of 68 µM and a TGI (SW-620) of 35.5 µM. The GI50 (LOX IMVI; Homo sapiens) was 15.8 µM, the LC50 (concentration giving 50% net cell kill) (LOX IMVI; Homo sapiens) was 63.4 µM and the TGI (LOX IMVI) was 31.7 µM. The TGI (NCI/ADR-RES) was 96.9 µM, the GI50 (NCI/ADR-RES; Homo sapiens) was 27.6 µM and the CC50 (NCI/ADR-RES; [1]) was > 100 µM. The GI50 (RXF 393; Homo sapiens) was 18.8 µM, the CC50 (RXF 393; [1]) was 84.5 µM and the TGI (RXF 393) was 39.9 µM. The TGI (T-47D) was 49.2 µM, the GI50 (T-47D; Homo sapiens, T47D) was 14.7 µM and the CC50 (T-47D; Homo sapiens, T47D, read-out: LC50 (the source's name)) was > 100 µM. The TGI (CAKI-1) was 44.0 µM, the GI50 (CAKI-1; Homo sapiens) was 17.2 µM and the CC50 (CAKI-1; [1]) was > 100 µM. The GI50 (M14; Homo sapiens) was 17.2 µM, the CC50 (M14; [1]) was 64.8 µM and the TGI (M14) was 33.4 µM. The GI50 (OVCAR-3; Homo sapiens) was 14.1 µM, the CC50 (OVCAR-3; [1]) was 61.2 µM and the TGI (OVCAR-3) was 29.4 µM. It also gave a TGI (BT-549) of 30.0 µM, a GI50 (BT-549; Homo sapiens) of 15.5 µM and a CC50 (BT-549; [1]) of 58 µM. It also gave a TGI (HOP-92) of 31.8 µM, a GI50 (HOP-92; Homo sapiens) of 12.8 µM and an LC50 (concentration killing 50% of starting cells) (HOP-92; Homo sapiens) of 79.1 µM. The TGI (MDA-MB-231/ATCC) was 38.1 µM, the GI50 (MDA-MB-231/ATCC; Homo sapiens) was 18.1 µM and the CC50 (MDA-MB-231/ATCC; [1]) was 80.5 µM. For the same compound, the TGI (HCT-116) was >100 µM, the GI50 (HCT-116; Homo sapiens) was 18.6 µM and the LC50 (50% lethal concentration) (HCT-116; Homo sapiens) was > 100 µM. It also gave a GI50 (MALME-3M; Homo sapiens) of 20.1 µM, a CC50 (MALME-3M; [1]) of 74.1 µM and a TGI (MALME-3M) of 38.6 µM. The GI50 (NCI-H522; Homo sapiens) was 15.5 µM, the LC50 (concentration killing 50% of cells) (NCI-H522; Homo sapiens) was 81.7 µM and the TGI (NCI-H522) was 35.6 µM. The GI50 (SNB-75; Homo sapiens) was 17.6 µM, the LC50 (concentration killing 50% of cells) (SNB-75; Homo sapiens) was 59.2 µM and the TGI (SNB-75) was 32.2 µM. It also gave a GI50 (U251; Homo sapiens, U-251) of 15.8 µM, a CC50 (U251; Homo sapiens, U-251, read-out: LC50 (the source's name)) of 65.7 µM and a TGI (U251) of 32.2 µM. The TGI (DU-145) was 36.5 µM, the GI50 (DU-145; Homo sapiens) was 17 µM and the CC50 (DU-145; [1]) was 78.4 µM. For the same compound, the GI50 (ACHN; Homo sapiens) was 29.9 µM, the CC50 (ACHN; [1]) was > 100 µM and the TGI (ACHN) was >100 µM. For the same compound, the GI50 (OVCAR-4; Homo sapiens) was 18.6 µM, the CC50 (OVCAR-4; [1]) was 98 µM and the TGI (OVCAR-4) was 42.7 µM. For the same compound, the “Percent PAI-1 inhibition” value (wildtype human PAI-1; at the concentration given, percent of activity of untreated PAI-1) was 8, the “Conc. of compound required for PAI-1 inhibition” value (wildtype human PAI-1; concentration giving the percent inhibition, 6 nM PAI-1, 8 nM uPA) was 100 µM and the GI50 (K-562; Homo sapiens, K562) was 3.4 µM. It also gave a CC50 (K-562; Homo sapiens, K562, read-out: LC50 (the source's name)) of 3.4 µM, a TGI (K-562) of 14.1 µM and a TGI (HS 578T) of 41.7 µM. It also gave a GI50 (HS 578T; Homo sapiens) of 19.1 µM, a CC50 (HS 578T; [1]) of 90.9 µM and a GI50 (NCI-H23; Homo sapiens) of 34.2 µM. For the same compound, the CC50 (NCI-H23; [1]) was > 100 µM, the TGI (NCI-H23) was >100 µM and the GI50 (KM12; Homo sapiens) was 21 µM. For the same compound, the CC50 (KM12; [1]) was 73.3 µM and the TGI (KM12) was 39.2 µM.
With `COc1cc(CNc2ccc(C(=O)OC(C)(C)C)cc2)cc(CN2CCN(c3ccccn3)CC2)c1O` [Compound Q012145T] the GI50 (SW-620; Homo sapiens) was 63.7 µM, the GI50 (LOX IMVI; Homo sapiens) was 60.4 µM and the GI50 (NCI/ADR-RES; Homo sapiens) was 41.1 µM. The GI50 (RXF 393; Homo sapiens) was 80.3 µM, the GI50 (T-47D; Homo sapiens, T47D) was 13.1 µM and the GI50 (CAKI-1; Homo sapiens) was > 100 µM. It also gave a GI50 (M14; Homo sapiens) of 83.3 µM, a GI50 (OVCAR-3; Homo sapiens) of 37.5 µM and a GI50 (BT-549; Homo sapiens) of 52.9 µM. For the same compound, the GI50 (HOP-92; Homo sapiens) was 6.57 µM, the GI50 (MDA-MB-231/ATCC; Homo sapiens) was > 100 µM and the GI50 (HCT-116; Homo sapiens) was 15.2 µM. For the same compound, the GI50 (MALME-3M; Homo sapiens) was 34.6 µM, the GI50 (NCI-H522; Homo sapiens) was 52.9 µM and the GI50 (SNB-75; Homo sapiens) was > 100 µM. The GI50 (U251; Homo sapiens, U-251) was 75.9 µM, the GI50 (DU-145; Homo sapiens) was > 100 µM and the GI50 (ACHN; Homo sapiens) was > 100 µM. The GI50 (OVCAR-4; Homo sapiens) was 46.9 µM, the “Conc. of compound required for PAI-1 inhibition (result in words)” value (wildtype human PAI-1) was “No inhibition” and the GI50 (K-562; Homo sapiens, K562) was 10.2 µM. For the same compound, the GI50 (HS 578T; Homo sapiens) was > 100 µM, the GI50 (NCI-H23; Homo sapiens) was 51.6 µM and the GI50 (KM12; Homo sapiens) was 80.1 µM.
`CCOC(=O)[C@H](Cc1ccccc1)NCc1cc(CN2CCN(c3ccccn3)CC2)c(O)c(OC)c1` [Compound Q012147T] was tested, and the GI50 (SW-620; Homo sapiens) was > 100 µM, the GI50 (LOX IMVI; Homo sapiens) was > 100 µM and the GI50 (NCI/ADR-RES; Homo sapiens) was > 100 µM. The GI50 (RXF 393; Homo sapiens) was 76.5 µM, the GI50 (T-47D; Homo sapiens, T47D) was 33.5 µM and the GI50 (CAKI-1; Homo sapiens) was > 100 µM. For the same compound, the GI50 (M14; Homo sapiens) was 99 µM, the GI50 (OVCAR-3; Homo sapiens) was 86.2 µM and the GI50 (BT-549; Homo sapiens) was 67.5 µM. The GI50 (HOP-92; Homo sapiens) was 24.8 µM, the GI50 (MDA-MB-231/ATCC; Homo sapiens) was > 100 µM and the GI50 (HCT-116; Homo sapiens) was 34.4 µM. It also gave a GI50 (MALME-3M; Homo sapiens) of 99.9 µM, a GI50 (NCI-H522; Homo sapiens) of 76.3 µM and a GI50 (SNB-75; Homo sapiens) of 56.6 µM. The GI50 (U251; Homo sapiens, U-251) was 61.9 µM, the GI50 (DU-145; Homo sapiens) was > 100 µM and the GI50 (ACHN; Homo sapiens) was 78.2 µM. For the same compound, the GI50 (OVCAR-4; Homo sapiens) was 70.2 µM, the “Conc. of compound required for PAI-1 inhibition (result in words)” value (wildtype human PAI-1) was “No inhibition” and the GI50 (K-562; Homo sapiens, K562) was 49.3 µM. The GI50 (HS 578T; Homo sapiens) was 48.3 µM, the GI50 (NCI-H23; Homo sapiens) was 55.9 µM and the GI50 (KM12; Homo sapiens) was > 100 µM.
